“Also recorded” adds a separate entry of the source. Like-named read-outs stand apart in the source and are kept apart here.
Experiments:
[1] = tested on: Kv2 delayed-rectifier potassium channels (AgKv2); assay: Whole cell patch clamp of potassium channel currents in Sua1B cells; format: cell-based, Anopheles gambiae
From the text: (§1) Cell Culture. […] Cells were passed every 3-5 days.
(§2) Differentiation with 20-Hydroxyecdysone. […] Controls had 0.1% DMSO.

AgKv2 K+ channels = assay: Whole cell patch clamp of AgKv2 K+ channels expressed in HEK293 cells; format: cell-based, Anopheles gambiae
potassium channels = assay: Thallium flux (FluxOR) fluorescence assay of potassium channel function in Sua1B cells; format: cell-based, Anopheles gambiae
Method: as §2
Thallium Flux Measurements of Potassium Channel Pharmacology. The FluxOR™ potassium channel assay (Molecular Probes, Inc., Eugene, Oreg., USA) was performed as outlined in the product information sheet and performed on the SyntaxMax plate reader (BioTek, Winooski, Vt., USA).

[2] = tested on: outward potassium currents similar to Kv2 currents; assay: Patch clamp of potassium currents in Sf21 cells; format: cell-based, lepidopteran; conditions: 3 hours treatment
Method: (§3) FIGS. 8A-8C. […] Imidacloprid-induced calcium fluorescence is blocked by 100 μM mecamylamine (MML). […] FIG. 8B: Response of a patch clamped Sf21 cell to imidacloprid treatment after 6 hours in 20-HE. […] The current voltage plot was generated by subtracting TEA-insensitive current from total current at each voltage.

[3] = tested on: nicotinic acetylcholine receptors; assay: Imidacloprid-induced calcium fluorescence in Sf21 cells; format: cell-based, lepidopteran
Method: as §3
FIG. 9. […] Expression of IMI-induced fluorescence is the same, with even lower vehicle background with caffeine, at least in this particular experiment.

[4] = tested on: Kv2 delayed-rectifier K+ channel (AgKv2), native channel current in Sua1B cells; conditions: read-out: IC50 (TEA inhibition of K+ current), FIG. 5F, whole cell patch clamp, holding potential −80 mV, steps up to +100 mV, TEA 0.3-30 mM traces, 20-HE added 3 hours before experiments (general method)
From the text: as §1
(§4) Differentiation with 20-Hydroxyecdysone.

[5] = tested on: Anopheles gambiae Kv2 (AgKv2) channel (Accession # XM_315955.4) expressed in HEK293 cells; conditions: read-out: EC50 (TEA inhibition of K+ current); FIG. 6E; HEK293 cells with AgKv2 gene, CMV promoter, tetracycline-induced (w/ TC); whole cell patch clamp, holding potential −80 mV, steps up to +100 mV
muscarinic-type receptor = assay: Calcium fluorescence response to muscarinic agonists in Sua1B cells; format: cell-based, Anopheles gambiae
From the text: as §1, §4

[6] = tested on: nicotinic acetylcholine receptors; assay: Imidacloprid-induced calcium fluorescence in Sua1B cells; format: cell-based, Anopheles gambiae
[7] = tested on: nicotinic acetylcholine receptors; assay: Patch clamp of Sf21 cell response to imidacloprid; format: cell-based, lepidopteran; conditions: Sf21 cell after 6 hours in 20-HE
Method: as §3

## Nc1ccncc1 [4-AP, 4-aminopyridine]
[1]; 20-HE-treated Sua1B cells
  inhibition of Kv2 (AgKv2) K+ currents: inhibited AgKv2 currents
[1]; 20-HE-treated Sua1B cells, listed as 4-aminopyridine
  inhibition of Kv2 (AgKv2) K+ currents: inhibited
AgKv2 K+ channels; HEK293 cells expressing the AgKv2 gene
  inhibition of AgKv2 K+ current: inhibited
Potassium channels; Sua1B cells induced by 20-HE
  effect on thallium ion uptake: blocking action

## CC(C)(O)CC[C@@H](O)[C@](C)(O)[C@H]1CC[C@@]2(O)C3=CC(=O)[C@@H]4C[C@@H](O)[C@@H](O)C[C@]4(C)[C@H]3CC[C@]12C [20-HE, 20-hydroxyecdysone]
[1]; 20-HE treatment of Sua1B cells
  Maximal increase of AgKv2 channel expression (current): 2000 pA
[1]; Sua1B cells, whole cell patch clamp
  time after treatment at which Kv2 delayed-rectifier potassium channels are expressed: ≤ 3 h
[2]
  expression of potassium currents: expressing outward potassium currents
Potassium channels; Sua1B cells, 42 μM 20-HE, time dependence
  K+ channel expression (thallium fluorescence): detectable ion channel expression in hours
[3]; Sf21 cells, 6 hours of exposure
  expression of nicotinic acetylcholine receptors: enhances expression

## CC[N+](CC)(CC)CC [TEA, tetraethylammonium]
[1]
  inhibition of Kv2 (AgKv2) K+ currents: inhibited AgKv2 currents; also recorded: Inhibition of K^+ current
[4]
  IC50: 8000 µM
[5]
  EC50: 1300 µM
AgKv2 K+ channels
  inhibition of AgKv2 K+ current: inhibited; also recorded: Inhibition of potassium current

## CC(C[N+](C)(C)C)OC(N)=O (centres unmarked) [bethanechol]
muscarinic-type receptor
  fold less potent response in the absence of insect hormone: ~200 fold
muscarinic-type receptor; read-out: EC50 (concentration where the response is half maximal), calcium fluorescence
  EC50: 0.25 µM
muscarinic-type receptor; read-out: EC50, calcium fluorescence
  EC50: 48 µM

## Cn1c(=O)c2c(ncn2C)n(C)c1=O [caffeine]
[3]; Sf21 cells, 6 hours exposure, 10 μM imidacloprid
  expression of imidacloprid sensitivity (IMI-induced fluorescence): approximately the same effect as caffeine and 20-HE

## O=[N+]([O-])NC1=NCCN1Cc1ccc(Cl)nc1 [imidacloprid]
[6]; Sua1B cells in the absence of 20-HE
  calcium fluorescence versus controls: no imidacloprid effect
[6]; Sua1B cells, 3 hours of 20-HE treatment
  calcium fluorescence versus controls: increases calcium fluorescence above controls
[7]
  current response of patch clamped cell: inward current
[3]; 10 μM, Sf21 cells, 6 hours of exposure to 20-HE
  calcium fluorescence compared to matched controls: greater imidacloprid-induced calcium fluorescence
[3]; Sf21 cells without 20-HE
  calcium fluorescence: reduced effect

## CNC1(C)C2CCC(C2)C1(C)C (centres unmarked) [mecamylamine]
[6]; 100 μM, Sua1B cells, 3 hours of 20-HE treatment
  block of imidacloprid-increased calcium fluorescence: blocked
[3]; 100 μM, Sf21 cells, 6 hours 20-HE
  block of imidacloprid-induced calcium fluorescence: blocked
[3]; Sf21 cells without 20-HE
  reduction of imidacloprid-induced calcium fluorescence: variable and not statistically significant reduction

## NC1=N[C@H](O)[C@H]2[C@H]3O[C@]4(O)O[C@@H]([C@@H](O)[C@@]2(N1)[C@@H]4O)[C@]3(O)CO [tetrodotoxin]
Potassium channels
  effect on thallium ion uptake: no effect
